Source: ChEMBL document CHEMBL4402608 (J Med Chem, 2020)

How the values were obtained:
[1] = Displacement of [3H]-PK11195 from rat brain GABA PBR measured after 90 mins by microbeta scintillation counting method
[2] = target: D(4) dopamine receptor (Homo sapiens, UniProt P21917); assay: Agonist activity at Gi/Go-coupled human D4R expressed in CHOK1 cells assessed as induction of beta-arrestin recruitment at 10 uM measured after 90 mins by beta-galactosidase based PathHunter assay; assay type: cell-based
[3] = target: Muscarinic acetylcholine receptor M1 (Homo sapiens, UniProt P11229)

Structure (SMILES)	Ki [1]	Activity [2]	Ki [3] [µM]
CCCN(CC[C@]1(O)C[C@H](NC(=O)c2ccc3ccccc3c2)C1)[C@H]1CCc2nc(N)sc2C1	Not Active	Active	
CCCN[C@H]1CCc2nc(N)sc2C1 [PRAMIPEXOLE]			> 10
